Measured values: patent US20050107306A1, “Treatment of respiratory disease associated with matrix metalloproteases by inhalation of synthetic matrix metalloprotease inhibitors” (priority 2003, published 2005)

Assays:
MMP-3 (stromelysin) = MMP-3 (stromelysin) (Homo sapiens, UniProt P08254); settings: read-out: MMP-3 (stromelysin) Kl; cited from earlier work
MMP-1 (collagenase-1) = molecular target: T1, MMP-1 (collagenase-1) (Homo sapiens, UniProt P03956); settings: read-out: MMP-1 (collagenase-1) Kl; cited from earlier work
T1 sequence (P03956 100-469): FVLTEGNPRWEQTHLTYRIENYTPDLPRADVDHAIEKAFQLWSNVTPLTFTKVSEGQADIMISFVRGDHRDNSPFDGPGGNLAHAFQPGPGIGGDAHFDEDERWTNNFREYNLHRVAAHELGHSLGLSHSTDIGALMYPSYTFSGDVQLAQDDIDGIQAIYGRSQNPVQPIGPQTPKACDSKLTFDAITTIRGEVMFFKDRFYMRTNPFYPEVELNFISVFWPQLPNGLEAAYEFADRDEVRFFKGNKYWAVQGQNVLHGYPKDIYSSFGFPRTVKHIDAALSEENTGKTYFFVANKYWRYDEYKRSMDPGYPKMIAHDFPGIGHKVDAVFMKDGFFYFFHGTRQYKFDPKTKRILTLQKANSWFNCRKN

MMP-7 = molecular target: T2, MMP-7 (Homo sapiens, UniProt P09237); settings: read-out: MMP-7 Kl; cited from earlier work
T2 sequence (P09237 95-267): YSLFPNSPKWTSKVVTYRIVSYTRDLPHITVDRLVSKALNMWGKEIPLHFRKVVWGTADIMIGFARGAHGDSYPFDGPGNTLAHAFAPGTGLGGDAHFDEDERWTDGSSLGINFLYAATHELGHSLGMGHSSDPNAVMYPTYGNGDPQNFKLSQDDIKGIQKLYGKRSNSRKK

MMP-9 (gelatinase B) = MMP-9 (gelatinase B) (Homo sapiens, UniProt P14780); settings: read-out: MMP-9 (gelatinase B) Kl; cited from earlier work
Chain of MMP-9 (gelatinase B) (P14780 94-707, species assumed): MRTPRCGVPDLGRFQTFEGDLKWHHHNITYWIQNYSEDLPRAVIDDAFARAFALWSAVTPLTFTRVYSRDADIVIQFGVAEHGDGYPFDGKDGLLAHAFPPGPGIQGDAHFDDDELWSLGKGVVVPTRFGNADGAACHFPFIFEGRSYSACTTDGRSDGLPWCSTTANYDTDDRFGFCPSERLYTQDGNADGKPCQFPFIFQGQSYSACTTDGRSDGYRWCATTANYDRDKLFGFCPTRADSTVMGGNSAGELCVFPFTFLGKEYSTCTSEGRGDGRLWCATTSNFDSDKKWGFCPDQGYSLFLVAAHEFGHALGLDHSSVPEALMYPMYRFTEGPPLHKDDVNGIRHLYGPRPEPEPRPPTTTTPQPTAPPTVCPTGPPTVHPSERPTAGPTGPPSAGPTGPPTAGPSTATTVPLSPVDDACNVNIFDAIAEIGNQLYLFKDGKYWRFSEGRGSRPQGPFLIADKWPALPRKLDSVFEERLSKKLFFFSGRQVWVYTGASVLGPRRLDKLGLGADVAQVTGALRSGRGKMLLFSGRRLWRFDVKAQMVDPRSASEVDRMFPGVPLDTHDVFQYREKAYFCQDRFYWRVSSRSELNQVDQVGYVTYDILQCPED

MMP-2 (gelatinase A) = molecular target: T3, MMP-2 (gelatinase A) (Homo sapiens, UniProt P08253); settings: read-out: MMP-2 (gelatinase A) Kl; cited from earlier work
T3 sequence (P08253 110-660): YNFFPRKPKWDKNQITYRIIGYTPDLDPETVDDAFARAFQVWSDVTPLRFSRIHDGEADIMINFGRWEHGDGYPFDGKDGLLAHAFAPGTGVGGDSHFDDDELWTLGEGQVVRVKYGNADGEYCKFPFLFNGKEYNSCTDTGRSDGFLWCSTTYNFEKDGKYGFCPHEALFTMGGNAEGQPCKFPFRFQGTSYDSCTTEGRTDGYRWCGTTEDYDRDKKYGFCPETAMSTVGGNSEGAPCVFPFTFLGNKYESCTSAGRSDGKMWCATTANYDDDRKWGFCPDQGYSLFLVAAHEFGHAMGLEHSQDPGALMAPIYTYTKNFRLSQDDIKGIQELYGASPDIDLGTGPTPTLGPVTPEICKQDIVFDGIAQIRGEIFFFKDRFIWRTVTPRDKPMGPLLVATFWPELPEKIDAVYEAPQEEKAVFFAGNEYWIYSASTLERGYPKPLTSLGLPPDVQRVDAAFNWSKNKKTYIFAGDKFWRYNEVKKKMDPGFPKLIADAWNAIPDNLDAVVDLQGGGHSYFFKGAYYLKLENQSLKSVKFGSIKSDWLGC

sheep model for asthma = assay: Sheep model for asthma: carbachol challenge, DRC/PC 400%; type: in vivo; settings: 30 μg dose, 24 hours after administration
Description: Phosphate buffered saline (PBS) (control) • 2. […] Results:
DRC/PC %400 refers to the amount of carbochol required to induce a 400% change in airway hyperresponsiveness. The amount required is measured as carbachol breath units (BU); the aerosol concentration of carbachol is fixed and the animal continues to inhale until the appropriate response in obtained. Thus, a higher value indicates a protective effect against an asthmatic reaction.

[1] = tested on: MMP activity (assay designed primarily to detect MMP-9 activity); assay: MMP activity of BAL samples from smoking mice treated with nebulized ilomastat; type: in vivo; settings: for MMP Activity of BAL sample (mAU/min): drug treated (ilomastat 100 ug/mL nebulized daily), individual mouse samples
Description: The 2-week study was a repeat of the 1-week study but used 10 animals/group.
At the end of each study, BAL samples were obtained from the lungs of each animal using established procedures and each sample was tested for MMP activity using an assay designed primarily to detect MMP-9 activity.
• 1. 150 μL of MMP Reagent Mix was added to each well. The reagent mix consisted of the appropriate dilutions of previously prepared stock solutions in order to yield the following final concentrations in 200 μL final volume/well: • HEPES stock (50 mM final) • CaCl2 stock (10 mM final) • Ellmans Reagent stock (1.25 mM final) • Substrate (Bachem #H7145) stock (475 μM final) • Q.S. with dH2O • 2. Microtiter plate was placed in the 30° C. incubator for 15 min. • 3. 50 μL/well of each BAL sample was added into the appropriate wells • 4. 50 μL/well of vehicle control buffer was added to blank well. • 5. 48 μL/well of vehicle control buffer and 2 μL of MMP-9 (20 ng, CalBiochem #444231) was added to the control well. • 6. Plate was placed in VersaMax Microtiter Plate Reader which was pre-equilibrated to 30° C. • 7. Abs410 was read every 5-6 min for 3 hrs Results and Conclusions: […]

[2] = molecular target: MMP-12 (macrophage metalloelastase, ME) (Homo sapiens, UniProt P39900); settings: read-out: MMP-12 (macrophage metalloelastase, ME) Kl; cited from earlier work
Chain of MMP-12 (macrophage metalloelastase, ME) (P39900 106-470, species assumed): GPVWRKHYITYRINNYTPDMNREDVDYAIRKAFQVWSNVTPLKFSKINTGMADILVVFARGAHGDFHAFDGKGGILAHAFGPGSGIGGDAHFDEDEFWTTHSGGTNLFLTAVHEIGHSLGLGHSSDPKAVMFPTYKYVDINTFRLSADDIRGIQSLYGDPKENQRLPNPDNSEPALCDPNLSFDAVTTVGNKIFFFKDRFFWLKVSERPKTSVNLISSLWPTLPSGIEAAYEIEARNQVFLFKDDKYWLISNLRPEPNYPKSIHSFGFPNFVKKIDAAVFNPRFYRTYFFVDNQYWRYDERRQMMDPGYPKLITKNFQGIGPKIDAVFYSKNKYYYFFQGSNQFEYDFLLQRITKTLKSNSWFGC

[3] = Solubility in liquid formulation; type: physicochemical; settings: depending on the formulation, read-out: soluble in liquid formulation at levels up to
[4] = tested on: murine model of cigarette smoke-related emphysema; assay: Murine model of cigarette smoke-related emphysema: inflammatory cells in bronchoalveolar lavage (BAL); type: in vivo; settings: smoking mice
Description: Five groups of animals were studied. […] Group 1 animals (32 animals) were control non-smoking animals. Group 2 animals (32 animals) were administered aerosolized PBS (10 ml/5 animals) followed by cigarette smoke. […] All adult mice (12 weeks of age at initiation) were exposed to two cigarettes per day, 6 days/wk for up to 6 months.
Within each treatment group there were 3 timepoints for analysis: 1 week, 3 months, and 6 months. After one week, 3 months, and 6 months on study, 10 animals, 10 animals, and 12 animals respectively, from each group were sacrificed and analytical work on lungs and lung samples was performed (see below).
10 mL of sterile saline or drug was placed in the nebulizer and delivered to each group of five animals. Delivery proceeded until the nebulizer ran dry (about 30 minutes).
All were prepared in sterile saline. Vehicle control animals received sterile saline only.
The left lung was subjected to bronchoalveolar lavage (BAL) to determine levels of the inflammatory cell types macrophages and neutrophils, which were counted by morphology. BAL samples were collected using 0.5 mL rinses of the left lung.

human MMP-9 = assay: MMP-9 fluorescent activity assay in induced sputum samples; type: biochemical
Description: Induced sputum (IS) samples were collected from 22 healthy smokers (HS) and 19 patients with clinical evidence of chronic obstructive pulmonary disease (COPD) (Inclusion criteria: FER<0.7 and FEV1 % Predicted 30-80%). The IS was processed using dithiothreitol as previously described by Pavord et al. (1997) Thorax 52, 498-501. 15 randomly selected IS were used for inhibitor studies (COPD n=7; HS n=8).
MMP-9 activity in IS was measured using a commercially available human MMP-9 fluorescent activity assay (Fluorokine® E, R&D Systems, Europe, UK). Following binding of MMP-9 (92, 82, 62 kDa forms) to an immobilized monoclonal antibody, a fluorogenic substrate linked to a quencher molecule was added. Any active MMP-9 cleaved the peptide linkers between the fluorophore and the quencher molecule allowing measurement of the fluorescence using a fluorimeter (Spectrafluor Plus, Tecan, UK). For inhibitor studies, the IS samples were incubated for 30 minutes at room temperature with the inhibitors prior to addition of the synthetic substrate.

[5] = tested on: murine model of cigarette smoke-related emphysema; assay: Murine model of cigarette smoke-related emphysema: lung morphometry, mean linear intercept (Lm); type: in vivo; settings: smoking mice
Description: Five groups of animals were studied. […] Group 1 animals (32 animals) were control non-smoking animals. Group 2 animals (32 animals) were administered aerosolized PBS (10 ml/5 animals) followed by cigarette smoke. […] All adult mice (12 weeks of age at initiation) were exposed to two cigarettes per day, 6 days/wk for up to 6 months. Within each treatment group there were 3 timepoints for analysis: 1 week, 3 months, and 6 months. […] Delivery proceeded until the nebulizer ran dry (about 30 minutes). […] All were prepared in sterile saline. Vehicle control animals received sterile saline only. In each animal, the right lung was removed and used for fixation/inflation and paraffin embedding to study morphometry, to determine mean linear intercept (Lm), which is the distance between the walls of alveoli, and which increases as proteases (e.g., elastase, metalloproteases) break down pulmonary structure.

Chain of MMP-3 (stromelysin) (P08254 100-477, species assumed): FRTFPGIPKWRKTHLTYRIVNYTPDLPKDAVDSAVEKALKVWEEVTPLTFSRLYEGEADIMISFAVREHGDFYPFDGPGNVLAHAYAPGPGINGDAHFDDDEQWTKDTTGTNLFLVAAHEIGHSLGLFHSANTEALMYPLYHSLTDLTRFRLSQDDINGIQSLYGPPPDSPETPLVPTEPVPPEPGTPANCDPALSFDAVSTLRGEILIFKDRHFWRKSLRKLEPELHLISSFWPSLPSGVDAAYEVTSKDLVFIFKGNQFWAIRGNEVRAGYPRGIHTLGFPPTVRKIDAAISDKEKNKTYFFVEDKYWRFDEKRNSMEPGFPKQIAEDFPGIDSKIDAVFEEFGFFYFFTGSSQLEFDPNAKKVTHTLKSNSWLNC

O=C(NO)C1(CS(=O)(=O)c2ccc(Oc3ccc(Cl)cc3)cc2)CCOCC1 [RS-130,830]
Ki (MMP-3 (stromelysin)): 9 nM
Ki (MMP-1 (collagenase-1)): 590 nM
Ki (MMP-7): 1200 nM

CN1C(=O)N(C[C@@H](C(=O)NO)[C@@H](CC2CCCC2)C(=O)N2CCCCC2)C(=O)C1(C)C [Ro 32-3555]
Ki (MMP-9 (gelatinase B)): 59 nM
Ki (MMP-2 (gelatinase A)): 154 nM

CNC(=O)[C@H](Cc1c[nH]c2ccccc12)NC(=O)[C@@H](CC(=O)NO)CC(C)C [ilomastat, N-[2(R)-2(hydroxyamidocarbonylmethyl)-4-methylpentanoyl]-L-tryptophan methylamide]
effect against asthmatic reaction, in words (sheep model for asthma): clear protective effect
MMP activity of BAL samples, in words ([1]; 1-week study, all five treated mouse samples): no detectable MMP activity
MMP activity of BAL samples, in words ([1]; 2-week study, all ten treated mouse samples): no detectable MMP activity
MMP Activity of BAL sample (mAU/min) ([1]; 2 week study): 0 mAU/min
MMP Activity of BAL sample (mAU/min) ([1]; Pilot study (1 week)): 0 mAU/min
Ki [2]: 0.2 to 0.4 nM
solubility [3]: ≤ 15 mg/mL
Ki (MMP-3 (stromelysin)): 26 to 27 nM
Macrophages, cells per ml of BAL fluid ([4]; ilomastat dose 1 (100 ug/mL)): 1000 cells per ml
Neutrophils, cells per ml of BAL fluid ([4]; ilomastat dose 1 (100 ug/mL)): 100 cells per ml
Macrophages, cells per ml of BAL fluid ([4]; ilomastat dose 2 (50 ug/ml)): 1500 cells per ml
Neutrophils, cells per ml of BAL fluid ([4]; ilomastat dose 2 (50 ug/ml)): 220 cells per ml
Macrophages, cells per ml of BAL fluid ([4]; ilomastat dose 3 (10 ug/ml)): 2500 cells per ml
Neutrophils, cells per ml of BAL fluid ([4]; ilomastat dose 3 (10 ug/ml)): 50 cells per ml
inhibitory effect on MMP-9 activity in induced sputum (human MMP-9; 30 uM, IS from COPD patients, p=0.249 (ns)): 9.2+/−7.2%
inhibitory effect on MMP-9 activity in induced sputum (human MMP-9; 30 uM, IS from healthy smokers (HS), p=0.015): 22.6+/−6.7%
inhibitory effect on MMP-9 activity in induced sputum (human MMP-9; 100 uM, IS from COPD patients, p=0.004): 42.5+/−9.3%
inhibitory effect on MMP-9 activity in induced sputum (human MMP-9; 100 uM, IS from healthy smokers (HS), p=0.008): 39.4+/−6.3%
% protection (Lm) ([5]; ilomastat dose 1 (100 ug/mL)): 83%
Lm vs. non-smokers (%) ([5]; ilomastat dose 1 (100 ug/mL)): 2.6%
% protection (Lm) ([5]; ilomastat dose 2 (50 ug/ml)): 96%
Lm vs. non-smokers (%) ([5]; ilomastat dose 2 (50 ug/ml)): 0.6%
% protection (Lm) ([5]; ilomastat dose 3 (10 ug/ml)): 42%
Lm vs. non-smokers (%) ([5]; ilomastat dose 3 (10 ug/ml)): 8.7%
